Source: PubChem BioAssay AID210 (DTP/NCI, 2004)
“And” between values parts separate entries of the source, which are not always exact repeats. Identical values can stand only once. Inconclusive results and toxic doses are left out.

System: CD2F1 mice, ip Colon 26 adenocarcinoma, median survival T/C
Test: NCI In Vivo Anticancer Drug Screen. Data for tumor model Colon 26 Adenocarcinoma (intraperitoneal) in CD2F1 (CDF1) mice
Details: endpoint: median survival time, higher = longer survival
Procedure: The antitumor activity of compounds was measured in mice bearing transplantable tumors. Survival or tumor size were measured and the results are expressed as the measurement made in the treated group (T) divided by the measurement made in the vehicle treated control group (C). The tumor model used in this assay is Colon 26 Adenocarcinoma (intraperitoneal) in CD2F1 (CDF1) mice

O=C(O)C1(C(=O)O)CCC1.[NH2-].[NH2-].[Pt+2]
T/C (dose: 5.85 mg/kg/injection, schedule: Q04DX003 (iv), vehicle: saline): 96 % of control
T/C (dose: 8.78 mg/kg/injection, schedule: Q04DX003 (iv), vehicle: saline): 102 % of control
T/C (dose: 10.0 mg/kg/injection, schedule: Q01DX004 (ip), vehicle: saline): 110 % of control
T/C (dose: 11.7 mg/kg/injection, schedule: Q01DX001 (ip), vehicle: saline): 105 % of control
T/C (dose: 13.2 mg/kg/injection, schedule: Q04DX003 (iv), vehicle: saline): 105 % of control
T/C (dose: 17.6 mg/kg/injection, schedule: Q01DX001 (ip), vehicle: saline): 102 % of control
T/C (dose: 17.6 mg/kg/injection, schedule: Q01DX001 (iv), vehicle: saline): 91 % of control
T/C (dose: 19.8 mg/kg/injection, schedule: Q04DX003 (ip), vehicle: saline): 171 % of control
T/C (dose: 19.8 mg/kg/injection, schedule: Q04DX003 (iv), vehicle: saline): 117 % of control
T/C (dose: 20.0 mg/kg/injection, schedule: Q01DX004 (ip), vehicle: saline): 225 % of control
T/C (dose: 25.0 mg/kg/injection, schedule: Q04DX003 (ip), vehicle: dextrose): 203 % of control
T/C (dose: 26.3 mg/kg/injection, schedule: Q01DX001 (ip), vehicle: saline): 109 % of control and 217 % of control
T/C (dose: 26.3 mg/kg/injection, schedule: Q01DX001 (iv), vehicle: saline): 118 % of control and 94 % of control
T/C (dose: 29.6 mg/kg/injection, schedule: Q04DX003 (ip), vehicle: saline): 225 % of control
T/C (dose: 29.6 mg/kg/injection, schedule: Q04DX003 (iv), vehicle: saline): 162 % of control
T/C (dose: 30.0 mg/kg/injection, schedule: Q04DX004 (iv), vehicle: other): 154 % of control
T/C (dose: 33.0 mg/kg/injection, schedule: Q04DX002 (iv), vehicle: other): 109 % of control
T/C (dose: 39.5 mg/kg/injection, schedule: Q01DX001 (ip), vehicle: saline): 168 % of control
T/C (dose: 39.5 mg/kg/injection, schedule: Q01DX001 (iv), vehicle: saline): 95 % of control
T/C (dose: 40.0 mg/kg/injection, schedule: Q01DX004 (ip), vehicle: saline): 380 % of control
T/C (dose: 44.0 mg/kg/injection, schedule: Q04DX004 (iv), vehicle: other): 226 % of control
T/C (dose: 44.4 mg/kg/injection, schedule: Q04DX003 (ip), vehicle: saline): 257 % of control
T/C (dose: 44.4 mg/kg/injection, schedule: Q04DX003 (iv), vehicle: saline): 188 % of control
T/C (dose: 50.0 mg/kg/injection, schedule: Q04DX003 (ip), vehicle: dextrose): 228 % of control
T/C (dose: 59.3 mg/kg/injection, schedule: Q01DX001 (ip), vehicle: saline): 217 % of control
T/C (dose: 59.3 mg/kg/injection, schedule: Q01DX001 (iv), vehicle: saline): 103 % of control and 118 % of control
T/C (dose: 60.0 mg/kg/injection, schedule: Q01DX004 (ip), vehicle: saline): 324 % of control
T/C (dose: 65.0 mg/kg/injection, schedule: Q04DX004 (iv), vehicle: other): 253 % of control
T/C (dose: 66.7 mg/kg/injection, schedule: Q04DX003 (ip), vehicle: saline): 151 % of control
T/C (dose: 87.0 mg/kg/injection, schedule: Q04DX002 (iv), vehicle: other): 183 % of control
T/C (dose: 88.9 mg/kg/injection, schedule: Q01DX001 (ip), vehicle: saline): 217 % of control and 257 % of control
T/C (dose: 88.9 mg/kg/injection, schedule: Q01DX001 (iv), vehicle: saline): 102 % of control
T/C (dose: 100.0 mg/kg/injection, schedule: Q04DX003 (ip), vehicle: saline): 257 % of control
T/C (dose: 100.0 mg/kg/injection, schedule: Q04DX003 (iv), vehicle: saline): 168 % of control
T/C (dose: 133.0 mg/kg/injection, schedule: Q01DX001 (ip), vehicle: saline): 217 % of control and 257 % of control
T/C (dose: 133.0 mg/kg/injection, schedule: Q01DX001 (iv), vehicle: saline): 121 % of control and 257 % of control
T/C (dose: 200.0 mg/kg/injection, schedule: Q01DX001 (ip), vehicle: saline): 217 % of control and 257 % of control

Cc1c[nH]c(=O)[nH]c1=O
T/C (dose: 16.0 mg/kg/injection, schedule: Q04DX002 (ip), vehicle: Klucel (hydroxypropylcellulose) (HPC)): 97 % of control
T/C (dose: 32.0 mg/kg/injection, schedule: Q04DX002 (ip), vehicle: Klucel (hydroxypropylcellulose) (HPC)): 101 % of control
T/C (dose: 64.0 mg/kg/injection, schedule: Q04DX002 (ip), vehicle: Klucel (hydroxypropylcellulose) (HPC)): 101 % of control and 94 % of control and 96 % of control
T/C (dose: 128.0 mg/kg/injection, schedule: Q04DX002 (ip), vehicle: Klucel (hydroxypropylcellulose) (HPC)): 101 % of control and 88 % of control and 95 % of control
T/C (dose: 256.0 mg/kg/injection, schedule: Q04DX002 (ip), vehicle: Klucel (hydroxypropylcellulose) (HPC)): 110 % of control and 92 % of control and 97 % of control
T/C (dose: 512.0 mg/kg/injection, schedule: Q04DX002 (ip), vehicle: Klucel (hydroxypropylcellulose) (HPC)): 91 % of control
T/C (dose: 1024.0 mg/kg/injection, schedule: Q04DX002 (ip), vehicle: Klucel (hydroxypropylcellulose) (HPC)): 86 % of control

CC1(C(=O)O)C(O)CCC2(C)C1CCC1CC3CC12CCC3(O)CO (configuration not stated)
T/C (dose: 2.5 mg/kg/injection, schedule: Q04DX002 (ip), vehicle: saline with Tween-80): 92 % of control
T/C (dose: 5.0 mg/kg/injection, schedule: Q04DX002 (ip), vehicle: saline with Tween-80): 98 % of control
T/C (dose: 10.0 mg/kg/injection, schedule: Q04DX002 (ip), vehicle: saline with Tween-80): 106 % of control
T/C (dose: 20.0 mg/kg/injection, schedule: Q04DX002 (ip), vehicle: saline with Tween-80): 95 % of control
T/C (dose: 40.0 mg/kg/injection, schedule: Q04DX002 (ip), vehicle: saline with Tween-80): 100 % of control
T/C (dose: 80.0 mg/kg/injection, schedule: Q04DX002 (ip), vehicle: saline with Tween-80): 101 % of control
T/C (dose: 100.0 mg/kg/injection, schedule: Q04DX002 (ip), vehicle: distilled water + Tween-80): 94 % of control
T/C (dose: 200.0 mg/kg/injection, schedule: Q04DX002 (ip), vehicle: distilled water + Tween-80): 97 % of control

O=[N+]([O-])/C=C\c1ccc2c(c1)OCO2
T/C (dose: 3.12 mg/kg/injection, schedule: Q04DX003 (ip), vehicle: Klucel (hydroxypropylcellulose) (HPC)): 87 % of control
T/C (dose: 6.25 mg/kg/injection, schedule: Q04DX003 (ip), vehicle: Klucel (hydroxypropylcellulose) (HPC)): 105 % of control
T/C (dose: 25.0 mg/kg/injection, schedule: Q04DX003 (ip), vehicle: Klucel (hydroxypropylcellulose) (HPC)): 90 % of control

CC(=O)[C@]1(O)Cc2c(O)c3c(c(O)c2[C@@H](OC2CC(N)C(O)C(C)O2)C1)C(=O)c1c(O)cccc1C3=O (some centres not stated)
T/C (dose: 0.7 mg/kg/injection, schedule: Q07DX003 (iv), vehicle: water): 106 % of control
T/C (dose: 1.1 mg/kg/injection, schedule: Q07DX003 (iv), vehicle: water): 124 % of control
T/C (dose: 1.8 mg/kg/injection, schedule: Q07DX002 (iv), vehicle: water): 157 % of control
T/C (dose: 1.8 mg/kg/injection, schedule: Q07DX003 (iv), vehicle: water): 157 % of control
T/C (dose: 2.8 mg/kg/injection, schedule: Q07DX002 (iv), vehicle: water): 183 % of control
T/C (dose: 2.8 mg/kg/injection, schedule: Q07DX003 (iv), vehicle: water): 187 % of control
T/C (dose: 4.2 mg/kg/injection, schedule: Q07DX002 (iv), vehicle: water): 104 % of control
T/C (dose: 600.0 micrograms/kg/injection, schedule: Q04DX003 (ip), vehicle: water): 92 % of control

CN(C)CCCNc1ccc(NCCCN(C)C)c2c1C(=O)c1ccccc1C2=O
T/C (dose: 4.0 mg/kg/injection, schedule: Q01DX009 (ip), vehicle: saline): 101 % of control
T/C (dose: 8.0 mg/kg/injection, schedule: Q01DX009 (ip), vehicle: saline): 106 % of control
T/C (dose: 16.0 mg/kg/injection, schedule: Q01DX009 (ip), vehicle: saline): 100 % of control
T/C (dose: 32.0 mg/kg/injection, schedule: Q01DX009 (ip), vehicle: saline): 97 % of control

CN(C)CCNc1ccc(NCCN(C)C)c2c1C(=O)c1ccccc1C2=O
T/C (dose: 5.0 mg/kg/injection, schedule: Q01DX009 (ip), vehicle: acid diluted with saline): 115 % of control and 119 % of control
T/C (dose: 10.0 mg/kg/injection, schedule: Q01DX009 (ip), vehicle: acid diluted with saline): 108 % of control and 123 % of control and 202 % of control
T/C (dose: 40.0 mg/kg/injection, schedule: Q01DX009 (ip), vehicle: acid diluted with saline): 104 % of control and 105 % of control

CCOC(=O)C1C2OC(=O)C(C(=O)C2CN(CCCl)CCCl)C1C1CC=C(CC2=CCC(C3C4C(=O)OC(C(CN(CCCl)CCCl)C4=O)C3C(=O)OCC)CC2)CC1 (configuration not stated)
T/C (dose: 100.0 mg/kg/injection, schedule: Q04DX003 (ip), vehicle: Klucel (hydroxypropylcellulose) (HPC)): 216 % of control
T/C (dose: 200.0 mg/kg/injection, schedule: Q04DX003 (ip), vehicle: Klucel (hydroxypropylcellulose) (HPC)): 232 % of control
